The record followed here is patent US11945822B2, “Pyrazolo-triazine and/or pyrazolo-pxrimidine derivatives as selective inhibitor of cyclin dependent kinase” (QURIENT CO., LTD., priority 2018, dated 2024).

A value given as a limit tells only on which side of the number the result lay.

What all share (test): In vitro IC50 profile for CDKs family kinase (33PanQinase radiometric assay)
Assay type in all cases: biochemical
Common to all, as to settings: CDK7 selectivity profile in CDKs family

For one assay, the target named is T1, CDK8/CycC (Homo sapiens, UniProt P49336).
T1 construct: purchased ProQinase GmbH
The method, then: (§1) In Vitro IC50 Profile for CDK7 Inhibitor Among 28 CDKs Family Kinases.
(§2) The IC50 profile of compounds were determined using 28 CDKs family protein kinases through ProQinase GmbH (Freiburg, Germany). All the protocol and materials had been provided by ProQinase GmbH. Briefly, in the process, 90 μl H2O were added to each well of a compound dilution plate. To minimize potential precipitation, the H2O was added to the plate only a few minutes before the transfer of the compound solutions into the assay plates. The plate was shaken thoroughly, resulting in a “compound dilution plate/10% DMSO”. The compound dilution plate(s) were discarded at the end of the working day. For the assays (see below), 5 μl solution from each well of the compound dilution plate were transferred into the assay plates. The final volume of the assay was 50 μl. All compounds were tested at 10 final assay concentrations in the range from 1×10^−05 M to 3×10^−10 M. The final DMSO concentration in the reaction cocktails was 1% in all cases. All protein kinases provided by ProQinase were expressed in Sf9 insect cells or in E. coli as recombinant GST-fusion proteins or His-tagged proteins, either as full-length or enzymatically active fragments. All kinases were produced from human cDNAs and purified by either GSH affinity chromatography or immobilized metal affinity chromatography. The purity of the protein kinases was examined by SDS-PAGE/Coomassie staining, the identity was checked by mass spectroscopy. Kinases from external vendors, Carna Biosciences Inc.; Invitrogen Corp.; and Millipore Corp., were expressed, purified and quality-controlled by virtue of the vendors readings. A radiometric protein kinase assay (^33PanQinase® Activity Assay) was used for measuring the kinase activity of the 28 protein kinases. All kinase assays were performed in 96-well FlashPlates™ from PerkinElmer (Boston, MA, USA) in a 50 μl reaction volume. The reaction cocktails were incubated at 30° C. for 60 minutes. The reaction was stopped with 50 μl of 2% (v/v) H3PO4, plates were aspirated and washed two times with 200 μl 0.9% (w/v) NaCl. Incorporation of ^33Pi was determined with a microplate scintillation counter (Microbeta, Wallac). All assays were performed with a BeckmanCoulter/SAGIAN™ Core System. As part of the data evaluation the low control value from a particular plate was subtracted from the high control value as well as from all 80 “compound values” of the corresponding plate. The residual activity (in %) for each well of a particular plate was calculated by using the following formula: Res. Activity (%)=100×[(cpm of compound−low control)/(high control−low control)]. Results are represented in table (table 10).

A further assay concerns the target T2, CDK1/CycE1 (Homo sapiens, UniProt P06493).
T2 construct: purchased ProQinase GmbH
The method, then:
as §1, §2

A further assay deals with T3, CDK9/CycT1 (Homo sapiens, UniProt P50750).
T3 construct: purchased ProQinase GmbH
T3 sequence (P50750 whole entry): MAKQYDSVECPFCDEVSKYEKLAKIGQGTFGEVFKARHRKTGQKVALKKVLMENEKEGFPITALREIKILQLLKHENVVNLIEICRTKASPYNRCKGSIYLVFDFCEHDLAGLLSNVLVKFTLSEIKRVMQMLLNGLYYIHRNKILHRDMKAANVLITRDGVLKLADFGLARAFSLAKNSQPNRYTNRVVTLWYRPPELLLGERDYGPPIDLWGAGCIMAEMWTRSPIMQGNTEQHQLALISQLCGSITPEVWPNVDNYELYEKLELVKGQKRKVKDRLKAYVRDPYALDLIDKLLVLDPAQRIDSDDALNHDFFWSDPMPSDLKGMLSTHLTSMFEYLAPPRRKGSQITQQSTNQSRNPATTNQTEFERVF
T3 sequence (O60563 whole entry partner): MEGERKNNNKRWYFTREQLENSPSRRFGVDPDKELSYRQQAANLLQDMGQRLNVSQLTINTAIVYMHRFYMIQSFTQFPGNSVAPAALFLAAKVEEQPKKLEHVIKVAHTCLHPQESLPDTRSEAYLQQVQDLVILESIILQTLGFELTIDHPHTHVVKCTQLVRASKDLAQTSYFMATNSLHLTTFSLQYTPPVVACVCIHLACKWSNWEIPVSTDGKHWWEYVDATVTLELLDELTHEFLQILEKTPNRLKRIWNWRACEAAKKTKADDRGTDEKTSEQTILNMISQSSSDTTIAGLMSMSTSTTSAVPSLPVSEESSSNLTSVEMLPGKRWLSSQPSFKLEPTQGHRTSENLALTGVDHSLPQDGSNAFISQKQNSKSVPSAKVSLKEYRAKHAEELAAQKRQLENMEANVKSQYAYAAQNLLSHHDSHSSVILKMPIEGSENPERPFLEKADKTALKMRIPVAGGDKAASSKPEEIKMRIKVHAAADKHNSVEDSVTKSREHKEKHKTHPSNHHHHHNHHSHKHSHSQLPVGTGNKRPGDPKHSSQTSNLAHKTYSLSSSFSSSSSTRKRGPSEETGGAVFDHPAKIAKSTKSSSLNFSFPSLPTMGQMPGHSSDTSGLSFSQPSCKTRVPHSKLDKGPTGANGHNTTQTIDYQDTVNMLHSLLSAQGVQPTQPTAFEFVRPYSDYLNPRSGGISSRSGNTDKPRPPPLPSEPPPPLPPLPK
The protocol: as §1, §2

A further assay concerns the target T4, CDK3/CycE1 (Homo sapiens, UniProt Q00526).
T4 construct: purchased ProQinase GmbH
The protocol: as §1, §2

The target in another assay is T5, CDK6/CycD3 (Homo sapiens, UniProt Q00534).
T5 construct: purchased ProQinase GmbH
T5 sequence (Q00534 whole entry): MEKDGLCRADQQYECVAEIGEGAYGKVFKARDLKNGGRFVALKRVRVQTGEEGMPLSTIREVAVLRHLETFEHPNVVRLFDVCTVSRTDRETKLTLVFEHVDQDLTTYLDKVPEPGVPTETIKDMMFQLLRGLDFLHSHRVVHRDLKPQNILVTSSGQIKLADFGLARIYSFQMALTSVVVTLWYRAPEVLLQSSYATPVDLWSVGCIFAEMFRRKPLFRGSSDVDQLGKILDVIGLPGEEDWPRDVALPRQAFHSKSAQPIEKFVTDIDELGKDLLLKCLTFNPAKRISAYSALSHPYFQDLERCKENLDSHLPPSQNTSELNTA
T5 sequence (P30281 whole entry partner): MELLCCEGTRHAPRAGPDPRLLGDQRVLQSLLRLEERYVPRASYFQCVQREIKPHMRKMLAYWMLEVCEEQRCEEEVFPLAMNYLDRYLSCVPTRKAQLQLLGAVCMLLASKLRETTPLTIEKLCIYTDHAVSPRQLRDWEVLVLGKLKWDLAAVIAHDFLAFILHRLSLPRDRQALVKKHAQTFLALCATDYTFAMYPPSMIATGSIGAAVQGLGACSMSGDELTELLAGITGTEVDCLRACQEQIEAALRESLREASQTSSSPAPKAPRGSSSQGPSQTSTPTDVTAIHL
The method, then:
as §1, §2

The target in the next assay is T6, CDK16/CycY (Homo sapiens, UniProt Q00536).
T6 construct: either as full-length or enzymatically active fragments; purchased ProQinase GmbH (Freiburg, Germany)
The protocol: as §1, §2

Another assay concerns the target T7, CDK6/CycD2 (Homo sapiens, UniProt Q00534).
T7 construct: purchased ProQinase GmbH
The method, then:
as §1, §2

Another assay addresses T8, CDK17/p35NCK (Homo sapiens, UniProt Q00537).
T8 construct: either as full-length or enzymatically active fragments; purchased ProQinase GmbH (Freiburg, Germany)
The method, then:
as §1, §2

The target of a further assay is T9, CDK2/CycE1 (Homo sapiens, UniProt P24941).
T9 construct: purchased ProQinase GmbH
The protocol:
as §1, §2

The target in the next assay is T10, CDK19/CycC (Homo sapiens, UniProt Q9BWU1).
T10 construct: either as full-length or enzymatically active fragments; purchased ProQinase GmbH (Freiburg, Germany)
T10 sequence (Q9BWU1 whole entry, the tested form may be a part): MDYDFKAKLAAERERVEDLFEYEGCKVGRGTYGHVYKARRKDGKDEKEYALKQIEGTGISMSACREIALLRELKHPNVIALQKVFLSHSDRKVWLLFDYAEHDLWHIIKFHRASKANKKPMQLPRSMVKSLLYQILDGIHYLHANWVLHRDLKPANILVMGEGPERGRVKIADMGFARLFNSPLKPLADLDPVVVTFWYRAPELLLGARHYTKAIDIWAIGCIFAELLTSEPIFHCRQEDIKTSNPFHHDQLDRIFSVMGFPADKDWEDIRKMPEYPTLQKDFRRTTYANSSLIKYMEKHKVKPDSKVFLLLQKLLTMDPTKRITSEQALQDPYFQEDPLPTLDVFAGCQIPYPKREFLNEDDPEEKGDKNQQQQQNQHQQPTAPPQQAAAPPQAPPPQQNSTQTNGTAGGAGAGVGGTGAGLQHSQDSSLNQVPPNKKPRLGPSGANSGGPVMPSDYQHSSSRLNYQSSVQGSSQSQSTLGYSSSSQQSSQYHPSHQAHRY
T10 sequence (P24863 whole entry partner, the tested form may be a part): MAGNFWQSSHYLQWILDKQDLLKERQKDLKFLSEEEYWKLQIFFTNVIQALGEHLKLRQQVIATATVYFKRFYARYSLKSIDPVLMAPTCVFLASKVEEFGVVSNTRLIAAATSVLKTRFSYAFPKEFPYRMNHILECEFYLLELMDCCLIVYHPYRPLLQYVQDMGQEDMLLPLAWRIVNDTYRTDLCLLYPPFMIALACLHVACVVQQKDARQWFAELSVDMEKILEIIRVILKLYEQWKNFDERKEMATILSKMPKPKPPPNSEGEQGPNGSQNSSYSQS
The method, then:
as §1, §2

A further assay addresses T11, CDK5/p35NCK (Homo sapiens, UniProt Q00535).
T11 construct: purchased ProQinase GmbH
The protocol: as §1, §2

Another assay addresses T12, CDK12 wt/CycK (Homo sapiens, UniProt Q9NYV4).
T12 construct: purchased ProQinase GmbH
The method, then:
as §1, §2

The target in a further assay is T13, CDK20/CycH (Homo sapiens, UniProt Q8IZL9).
T13 construct: either as full-length or enzymatically active fragments; purchased ProQinase GmbH (Freiburg, Germany)
T13 sequence (Q8IZL9 whole entry, the tested form may be a part): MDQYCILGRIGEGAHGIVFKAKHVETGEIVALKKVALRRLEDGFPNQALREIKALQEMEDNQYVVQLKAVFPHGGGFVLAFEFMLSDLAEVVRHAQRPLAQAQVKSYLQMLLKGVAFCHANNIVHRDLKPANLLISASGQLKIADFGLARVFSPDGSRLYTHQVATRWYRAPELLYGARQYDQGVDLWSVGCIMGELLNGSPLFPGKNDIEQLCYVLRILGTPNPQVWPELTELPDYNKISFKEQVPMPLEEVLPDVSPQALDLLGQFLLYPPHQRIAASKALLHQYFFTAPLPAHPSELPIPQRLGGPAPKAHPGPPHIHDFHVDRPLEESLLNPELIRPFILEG
T13 sequence (P51946 whole entry partner, the tested form may be a part): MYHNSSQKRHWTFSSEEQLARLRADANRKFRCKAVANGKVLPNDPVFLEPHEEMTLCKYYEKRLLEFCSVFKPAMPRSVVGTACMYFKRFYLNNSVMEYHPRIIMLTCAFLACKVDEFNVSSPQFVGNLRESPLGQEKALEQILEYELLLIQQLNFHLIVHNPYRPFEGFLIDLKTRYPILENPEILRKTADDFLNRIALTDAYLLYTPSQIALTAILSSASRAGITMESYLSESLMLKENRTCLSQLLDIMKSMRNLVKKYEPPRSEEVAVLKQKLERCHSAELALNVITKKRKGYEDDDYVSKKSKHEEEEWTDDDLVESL
The method, then: as §1, §2

The target of the next assay is T14, CDK4/CycD3 (Homo sapiens, UniProt P11802).
T14 construct: purchased ProQinase GmbH
T14 sequence (P11802 whole entry): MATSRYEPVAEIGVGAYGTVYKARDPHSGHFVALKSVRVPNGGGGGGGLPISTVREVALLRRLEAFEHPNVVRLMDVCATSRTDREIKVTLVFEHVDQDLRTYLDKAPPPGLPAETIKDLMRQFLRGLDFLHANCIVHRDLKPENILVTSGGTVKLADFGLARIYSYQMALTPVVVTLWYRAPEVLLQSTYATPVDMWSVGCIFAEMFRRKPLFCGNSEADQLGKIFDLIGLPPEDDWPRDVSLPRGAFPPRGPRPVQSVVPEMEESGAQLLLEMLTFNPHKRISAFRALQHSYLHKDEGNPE
T14 sequence (P30281 whole entry partner): as the sequence (P30281 whole entry partner) above
The protocol: as §1, §2

The target in the next assay is T15, CDK3/CycC (Homo sapiens, UniProt Q00526).
T15 construct: purchased ProQinase GmbH
The protocol:
as §1, §2

The next assay addresses T16, CDK13/CycK (Homo sapiens, UniProt Q14004).
T16 construct: either as full-length or enzymatically active fragments; purchased ProQinase GmbH (Freiburg, Germany)
The protocol:
as §1, §2

For another assay, the target named is T17, CDK4/CycD2 (Homo sapiens, UniProt P11802).
T17 construct: purchased ProQinase GmbH
T17 sequence (P11802 whole entry): as the sequence (P11802 whole entry) above
T17 sequence (P30279 whole entry partner): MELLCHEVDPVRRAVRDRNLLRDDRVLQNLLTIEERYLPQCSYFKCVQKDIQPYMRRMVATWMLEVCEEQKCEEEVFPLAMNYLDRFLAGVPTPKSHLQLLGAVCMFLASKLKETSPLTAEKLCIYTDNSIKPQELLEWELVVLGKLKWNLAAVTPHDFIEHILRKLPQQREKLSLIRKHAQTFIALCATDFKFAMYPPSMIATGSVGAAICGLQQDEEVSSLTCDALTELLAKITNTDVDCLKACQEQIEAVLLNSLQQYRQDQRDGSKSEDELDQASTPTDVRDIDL
The protocol:
as §1, §2

The target in a further assay is T18, CDK6/CycD1 (Homo sapiens, UniProt Q00534).
T18 construct: purchased ProQinase GmbH
The protocol:
as §1, §2

The target in the next assay is T19, CDK2/CycA2 (Homo sapiens, UniProt P24941).
T19 construct: purchased ProQinase GmbH
The method, then:
as §1, §2

For a further assay, the target named is T20, CDK20/CycT1 (Homo sapiens, UniProt Q8IZL9).
T20 construct: either as full-length or enzymatically active fragments; purchased ProQinase GmbH (Freiburg, Germany)
T20 sequence (Q8IZL9 whole entry, the tested form may be a part): as the sequence (Q8IZL9 whole entry, the tested form may be a part) above
T20 sequence (O60563 whole entry partner, the tested form may be a part): as the sequence (O60563 whole entry partner) above
The protocol: as §1, §2

A further assay deals with T21, CDK1/CycB1 (Homo sapiens, UniProt P06493).
T21 construct: purchased ProQinase GmbH
T21 sequence (P06493 whole entry): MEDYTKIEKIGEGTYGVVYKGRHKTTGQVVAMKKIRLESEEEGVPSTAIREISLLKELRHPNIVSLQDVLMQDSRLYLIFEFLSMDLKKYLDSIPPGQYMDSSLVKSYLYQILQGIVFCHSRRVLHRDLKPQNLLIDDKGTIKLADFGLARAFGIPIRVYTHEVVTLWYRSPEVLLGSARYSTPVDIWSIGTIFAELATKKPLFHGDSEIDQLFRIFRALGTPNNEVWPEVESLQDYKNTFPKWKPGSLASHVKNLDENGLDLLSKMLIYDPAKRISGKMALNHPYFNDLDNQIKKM
T21 sequence (P14635 whole entry partner): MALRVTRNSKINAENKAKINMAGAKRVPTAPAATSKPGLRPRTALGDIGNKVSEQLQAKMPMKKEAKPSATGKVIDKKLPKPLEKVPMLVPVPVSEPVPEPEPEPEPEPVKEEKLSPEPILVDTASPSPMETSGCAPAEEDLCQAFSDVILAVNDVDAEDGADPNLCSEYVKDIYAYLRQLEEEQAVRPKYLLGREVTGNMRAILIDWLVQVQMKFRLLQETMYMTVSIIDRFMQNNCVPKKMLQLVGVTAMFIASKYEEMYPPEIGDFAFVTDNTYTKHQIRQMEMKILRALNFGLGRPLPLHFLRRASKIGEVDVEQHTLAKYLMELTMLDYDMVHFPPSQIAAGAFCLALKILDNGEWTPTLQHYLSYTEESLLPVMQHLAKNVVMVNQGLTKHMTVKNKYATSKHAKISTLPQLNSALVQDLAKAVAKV
The protocol: as §1, §2

For the next assay, the target named is T22, CDK2/CycD1 (Homo sapiens, UniProt P24941).
T22 construct: purchased ProQinase GmbH
The method, then: as §1, §2

The next assay has as its target T23, CDK7/CycH/MAT1 (Homo sapiens, UniProt P50613).
T23 construct: purchased ProQinase GmbH
The method, then: as §1, §2

T7 sequence (Q00534 whole entry): as the sequence (Q00534 whole entry) above
T7 sequence (P30279 whole entry partner): as the sequence (P30279 whole entry partner) above

Broadly, the IC50 is the concentration at which inhibition is half-maximal. Read a high IC50 as weaker potency. On to `CC(C)c1cnn2c(NCc3c(Cl)cccc3-n3ccc(C(C)(C)O)n3)nc(N3CCC(N)CC3)nc12` [Compound 210], for which the IC50 was above 10 µM at CDK8/CycC; above 10 µM on CDK1/CycE1; above 10 µM against CDK9/CycT1; above 10 µM against CDK3/CycE1; above 10 µM at CDK6/CycD3; 3.96 µM on CDK16/CycY. Moreover, the concentration for half-maximal inhibition (IC50) is above 10 µM against CDK6/CycD2; above 10 µM against CDK17/p35NCK; 3.48 µM against CDK2/CycE1; above 10 µM at CDK19/CycC; 4.79 µM at CDK5/p35NCK; above 10 µM on CDK12 wt/CycK. For the same compound, the IC50 against CDK20/CycH, against CDK4/CycD3, on CDK3/CycC, at CDK13/CycK, at CDK4/CycD2 and at CDK6/CycD1 was above 10 µM throughout. Moreover, the half-inhibitory concentration (IC50) at CDK2/CycA2 is 3.61 µM; against CDK20/CycT1 it was above 10 µM; against CDK1/CycB1, above 10 µM; against CDK2/CycD1, above 10 µM; at CDK7/CycH/MAT1, 0.015 µM.
